Data taken from publication PMC11575553 (Chemical Science, 2024).

Test system: SARS-CoV-2 dimerization loop (DL) RNA
Format: binding
Settings: 2.5 μM peptide; 0.010 M HEPES pH 7.0, 0.30 M NaCl; average of two replicates

| Substance | SPR response relative to parent peptide MG-FSS-m1 |
| --- | --- |
| MGCAQLRKQL(pCaaF)Y (sidechain bridge or staple) [Peptide K1A] | comparable |
| MGCKALRKQL(pCaaF)Y (sidechain bridge or staple) [Peptide Q2A] | substantially lower |
| MGCKQARKQL(pCaaF)Y (sidechain bridge or staple) [Peptide L3A] | substantially lower |
| MGCKQLAKQL(pCaaF)Y (sidechain bridge or staple) [Peptide R4A] | comparable |
| MGCKQLRAQL(pCaaF)Y (sidechain bridge or staple) [Peptide K5A] | comparable |
| MGCKQLRKAL(pCaaF)Y (sidechain bridge or staple) [Peptide Q6A] | substantially higher |
| MGCKQLRKQA(pCaaF)Y (sidechain bridge or staple) [Peptide L7A] | lower |
